US11364248B2 (AMGEN INC., priority 2017, dated 2022)
Where two headings read alike, the source gives them in different places.

Assays:
Mcl-1/Bim interaction = Mcl-1/Bim interaction (Homo sapiens (Human), UniProt Q07820); assay: Cell Free Mcl-1: Bim Affinity Assay (Mcl-1 HTRF); format: binding; settings: TR-FRET, recombinant human Mcl-1(171-327), biotin-Bim(51-76); read-out: Mel-1 HTRF IC50
Protocol: Cell Free Mcl-1: Bim Affinity Assay (Mcl-1 HTRF)
The inhibition of the Mcl-1/Bim interaction was measured using a time-resolved fluorescence resonance energy transfer (TR-FRET) assay. The recombinant human Mcl-1 (C-terminally 6×His tagged Mcl-1 containing residues 171-327) was generated at Amgen Inc (Thousand Oaks, Calif.). A biotinylated peptide derived from human Bim (residues 51-76) was purchased from CPC Scientific (San Jose, Calif.). The TR-FRET assay was conducted in a 384-well white OptiPlate™ (PerkinElmer, Waltham, Mass.) in a total volume of 40 μL. The reaction mixture contained 0.1 nM Mcl-1(171-327), 0.05 nM biotin-Bim(51-76), 0.05 nM LANCER Eu-W1024 Anti-6×His (PerkinElmer), 0.072 nM Streptavidin-Xlent (Cisbio, Bedford, Mass.), and serially diluted test compounds in the binding buffer of 20 mM Hepes, pH 7.5, 150 mM NaCl, 0.016 mM Brij©35, and 1 mM dithiothreitol. Test compounds were pre-incubated with Mcl-1(171-327) and biotin-Bim (51-76) for 60 min before addition of the detection mixture (LANCE Eu-W1024 Anti-6×His and Streptavidin-Xlent). The reaction plates were further incubated overnight and then were read on an Envision® multimode reader (PerkinElmer). Fluorescence signals were measured at 620 nm (40-nm bandwidth) and 665 nm (7.5-nm bandwidth) with a 60 μs delay after excitation at 320 nm (75-nm bandwidth). The signal ratio at 665/620 nm corresponded to the Mcl-1/Bim interaction and was used in all data analyses. The IC50 values of test compounds were determined from duplicate data by analyzing competition curves using a four-parameter sigmoidal model in GraphPad Prism (GraphPad Software, San Diego, Calif.) or in Genedata Screener® (Genedata, Basel, Switzerland).

OPM-2 = assay: Cell Viability Assay (OPM-2 10 FBS); format: cell-based, human; settings: OPM-2 cells, CellTiter-Glo, read-out: OPM-2 10% FBS IC50 IP
Outline: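 OPM-2 myeloma cells seeded at 3000 cells/well in RPMI 1640 with 10% FBS and exposed to serially diluted compounds for 16 h at 37° C., 5% CO2.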

Chain of Mcl-1/Bim interaction (Q07820 171-327): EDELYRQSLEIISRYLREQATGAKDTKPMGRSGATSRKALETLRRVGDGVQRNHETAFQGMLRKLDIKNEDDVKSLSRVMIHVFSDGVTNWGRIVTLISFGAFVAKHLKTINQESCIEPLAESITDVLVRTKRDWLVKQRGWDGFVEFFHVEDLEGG

IC50 (Mcl-1/Bim interaction) [nM] | SMILES | IC50 (OPM-2; 16 h) [nM] | IC50 (OPM-2; Homo sapiens, OPM-2, 16 h) [nM]
2.08 | C[C@@H]1[C@@H](C)CCC[C@@H]([C@H]2OC[C@@H](N3CC(O)C3)CO2)[C@@H]2CC[C@H]2CN2C[C@@]3(CCCc4cc(Cl)ccc43)COc3ccc(cc32)C(=O)NS1(=O)=O (single isomer, unassigned) [Example 62] | 4470 | 
2.06 | C[C@@H]1[C@@H](C)CCC[C@@H]([C@H]2OC[C@@H](N3CCC3(C)C)CO2)[C@@H]2CC[C@H]2CN2C[C@@]3(CCCc4cc(Cl)ccc43)COc3ccc(cc32)C(=O)NS1(=O)=O (single isomer, unassigned) [Example 63] | 1150 | 
4.9 | C[C@@H]1[C@@H](C)CCC[C@@H]([C@H]2OC[C@@H](N3CCC3(C)C)CO2)[C@@H]2CC[C@H]2CN2C[C@@]3(CCCc4cc(Cl)ccc43)COc3ccc(cc32)C(=O)NS1(=O)=O (single isomer, unassigned) [Example 64] | 7490 | 
0.382 | C[C@@H]1[C@@H](C)CCCC(C2OCC(N)(CO)CO2)[C@@H]2CC[C@H]2CN2C[C@@]3(CCCc4cc(Cl)ccc43)COc3ccc(cc32)C(=O)NS1(=O)=O (single isomer, unassigned) [Example 80] | 240 | 
0.448 | C[C@@H]1[C@@H](C)CCCC(C2OCC(CO)(N(C)C)CO2)[C@@H]2CC[C@H]2CN2C[C@@]3(CCCc4cc(Cl)ccc43)COc3ccc(cc32)C(=O)NS1(=O)=O (single isomer, unassigned) [Example 86] |  | 178
0.49 | C[C@@H]1[C@@H](C)CCC[C@H]([C@H]2O[C@H]3CNC[C@H]3O2)[C@@H]2CC[C@H]2CN2C[C@@]3(CCCc4cc(Cl)ccc43)COc3ccc(cc32)C(=O)NS1(=O)=O (stereo in doubt) [Example 9, (1S,3′R,6′R,7′R,11′S,12′R)-6-chloro-11′,12′-dimethyl-7′-((2r,3aR,6aS)-tetrahydro-3aH-[1,3]dioxolo[4,5-c]pyrrol-2-yl)-3,4-dihydro-2H,15′H-spiro[naphthalene-1,22′-[20]oxa[13]thia[1,14]diazatetracyclo [14.7.2.0~3,6~.0~19,24~]pentacosa[16,18,24]trien]-15′-one 13′,13′-dioxide] | 381 | 
1.27 | C[C@@H]1[C@@H](C)CCC[C@H]([C@H]2O[C@H]3CNC[C@H]3O2)[C@@H]2CC[C@H]2CN2C[C@@]3(CCCc4cc(Cl)ccc43)COc3ccc(cc32)C(=O)NS1(=O)=O (stereo in doubt) [Example 10, (1S,3′R,6′R,7′R,11′S,12′R)-6-chloro-11′,12′-dimethyl-7′-((2r,3aR,6aS)-tetrahydro-3aH-[1,3]dioxolo[4,5-c]pyrrol-2-yl)-3,4-dihydro-2H,15′H-spiro[naphthalene-1,22′-[20]oxa[13]thia[1,14]diazatetracyclo [14.7.2.0~3,6~.0~19,24~]pentacosa[16,18,24]trien]-15′-one 13′,13′-dioxide] | 1120 | 
0.765 | C[C@@H]1[C@@H](C)CCC[C@H]([C@H]2O[C@H]3CNC[C@H]3O2)[C@@H]2CC[C@H]2CN2C[C@@]3(CCCc4cc(Cl)ccc43)COc3ccc(cc32)C(=O)NS1(=O)=O (stereo in doubt) [Example 15, (1S,3′R,6′R,7′R,11′S,12′R)-6-chloro-11′,12′-dimethyl-7′-((2r,3aR,6aS)-tetrahydro-3aH-[1,3]dioxolo[4,5-c]pyrrol-2-yl)-3,4-dihydro-2H,15′H-spiro[naphthalene-1,22′-[20]oxa[13]thia[1,14]diazatetracyclo [14.7.2.0~3,6~.0~19,24~]pentacosa[16,18,24]trien]-15′-one 13′,13′-dioxide] | 625 | 
0.194 | CC(=O)N1C[C@@H]2O[C@H]([C@H]3CCC[C@H](C)[C@@H](C)S(=O)(=O)NC(=O)c4ccc5c(c4)N(C[C@@H]4CC[C@H]43)C[C@@]3(CCCc4cc(Cl)ccc43)CO5)O[C@@H]2C1 (stereo in doubt) [Example 16, (1S,3′R,6′R,7′R,11′S,12′R)-7′-((2r,3aR,6aS)-5-acetyltetrahydro-3aH-[1,3]dioxolo[4,5-c]pyrrol-2-yl)-6-chloro-11′,12′-dimethyl-3,4-dihydro-2H,15′H-spiro[naphthalene-1,22′-[20]oxa[13]thia[1,14]diazatetracyclo [14.7.2.0~3,6~.0~19,24~]pentacosa[16,18,24]trien]-15′-one 13′,13′-dioxide] |  | 262
0.709 | C[C@@H]1[C@@H](C)CCC[C@H]([C@H]2O[C@H]3CN(C)C[C@H]3O2)[C@@H]2CC[C@H]2CN2C[C@@]3(CCCc4cc(Cl)ccc43)COc3ccc(cc32)C(=O)NS1(=O)=O (stereo in doubt) [Example 24, (1S,3′R,6′R,7′R,11′S,12′R)-6-chloro-11′,12′-dimethyl-7′-((2r,3aR,6aS)-5-methyltetrahydro-3aH-[1,3]dioxolo[4,5-c]pyrrol-2-yl)-3,4-dihydro-2H,15′H-spiro[naphthalene-1,22′-[20]oxa[13]thia[1,14]diazatetracyclo [14.7.2.0~3,6~.0~19,24~]pentacosa[16,18,24]trien]-15′-one 13′,13′-dioxide] |  | 532
0.829 | C[C@@H]1[C@@H](C)CCC[C@H]([C@H]2O[C@H]3CNC[C@H]3O2)[C@@H]2CC[C@H]2CN2C[C@@]3(CCCc4cc(Cl)ccc43)COc3ccc(cc32)C(=O)NS1(=O)=O (stereo in doubt) [Example 35, (1S,3′R,6′R,7′R,11′S,12′R)-6-chloro-11′,12′-dimethyl-7′-((2r,3aR,6aS)-tetrahydro-3aH-[1,3]dioxolo[4,5-c]pyrrol-2-yl)-3,4-dihydro-2H,15′H-spiro[naphthalene-1,22′-[20]oxa[13]thia[1,14]diazatetracyclo [14.7.2.0~3,6~.0~19,24~]pentacosa[16,18,24]trien]-15′-one 13′,13′-dioxide] | 304 | 
0.657 | CC[C@@H]1CCCC[C@H]([C@H]2OC[C@@H](N(C)C)CO2)C2CC[C@H]2CN2C[C@@]3(CCCc4cc(Cl)ccc43)COc3ccc(cc32)C(=O)NS1(=O)=O (stereo in doubt) [Example 73, (1S,3′R,6′S,7′S,12′R)-6-chloro-7′-(cis-5-(dimethylamino)-1,3-dioxan-2-yl)-12′-ethyl-3,4-dihydro-2H,15′H-spiro[naphthalene-1,22′-[20]oxa[13]thia[1,14]diazatetracyclo [14.7.2.0~3,6~.0~19,24~]pentacosa[16,18,24]trien]-15′-one 13′,13′-dioxide] | 915 | 
0.196 | CC[C@@H]1CCCC[C@H]([C@H]2OC[C@@H](N(C)C)CO2)C2CC[C@H]2CN2C[C@@]3(CCCc4cc(Cl)ccc43)COc3ccc(cc32)C(=O)NS1(=O)=O (stereo in doubt) [Example 74, (1S,3′R,6′S,7′S,12′R)-6-chloro-7′-(cis-5-(dimethylamino)-1,3-dioxan-2-yl)-12′-ethyl-3,4-dihydro-2H,15′H-spiro[naphthalene-1,22′-[20]oxa[13]thia[1,14]diazatetracyclo [14.7.2.0~3,6~.0~19,24~]pentacosa[16,18,24]trien]-15′-one 13′,13′-dioxide] | 108 | 
2.65 | C[C@H]1CCC[C@H]([C@H]2OC[C@@H](N(C)C)CO2)[C@@H]2CC[C@H]2CN2C[C@@]3(CCCc4cc(Cl)ccc43)COc3ccc(cc32)C(=O)NS(=O)(=O)C1 (stereo in doubt) [Example 77] |  | 595
2.81 | C[C@H]1CCC[C@H]([C@H]2OC[C@@H](N(C)C)CO2)[C@@H]2CC[C@H]2CN2C[C@@]3(CCCc4cc(Cl)ccc43)COc3ccc(cc32)C(=O)NS(=O)(=O)C1 (stereo in doubt) [Example 78] | 599 | 
1.28 | C[C@@H]1[C@@H](C)CCC[C@H](C2OCCO2)[C@@H]2CC[C@H]2CN2C[C@@]3(CCCc4cc(Cl)ccc43)COc3ccc(cc32)C(=O)NS1(=O)=O [Example 3, (1S,3′R,6′R,7′S,11′S,12′R)-6-chloro-7′-(1,3-dioxolan-2-yl)-11′,12′-dimethyl-3,4-dihydro-2H,15′H-spiro[naphthalene-1,22′-[20]oxa[13]thia[1,14]diazatetracyclo [14.7.2.0~3,6~.0~19,24~]pentacosa[16,18,24]trien]-15′-one 13′,13′-dioxide] | 926 | 
